Source: the supplement of paper PMC10307832

Experiments:
Assay in all cases: relative viability (nuclei count vs DMSO), 5 days (fraction); higher = more cells survive
A549 = tested on: A549
Method in brief: (§1)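 Relative viability was taken as the ratio of nuclei in treated wells to nuclei in vehicle wells. Lung cancer cell lines in 1536-well plates received compounds by pin tool one day after seeding, either one drug alone or a fixed anchor-drug dose plus five library-drug doses (not always all listed) in √10 steps. Nuclei were counted on 4× images after 5 days of treatment, and values are medians of duplicate plates.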

Calu-6 = tested on: Calu-6
Method in brief: as §1

EBC-1 = tested on: EBC-1
Method in brief: as §1

NCI-H1993 = tested on: NCI-H1993
Method in brief: as §1

NCI-H596 = tested on: NCI-H596
Method in brief: as §1

NCI-H1623 = tested on: NCI-H1623
Method in brief: as §1

IA-LM = tested on: IA-LM
Method in brief: as §1

NCI-H23 = tested on: NCI-H23
Method in brief: as §1

NCI-H1703 = tested on: NCI-H1703
Method in brief: as §1

NCI-H1299 = tested on: NCI-H1299
Method in brief: as §1

NCI-H522 = tested on: NCI-H522
Method in brief: as §1

NCI-H1648 = tested on: NCI-H1648
Method in brief: as §1

## C=C1C(=O)O[C@@H](CCCCCCCC)[C@@H]1C(=O)O [C-75] + COc1cc2c(Oc3ccc(NC(=O)C4(C(=O)Nc5ccc(F)cc5)CC4)cc3F)ccnc2cc1OCCCN1CCOCC1 [Foretinib] (partner 0.25 µM)
A549; first compound 0.08 µM
  relative viability: 0.946
A549; first compound 0.253 µM
  relative viability: 0.977
A549; first compound 0.8 µM
  relative viability: 1.01
A549; first compound 8 µM
  relative viability: 0.869
Calu-6; first compound 0.08 µM
  relative viability: 0.875
Calu-6; first compound 0.253 µM
  relative viability: 0.914
Calu-6; first compound 0.8 µM
  relative viability: 0.81
Calu-6; first compound 2.53 µM
  relative viability: 0.634
Calu-6; first compound 8 µM
  relative viability: 0.907
EBC-1; first compound 0.08 µM
  relative viability: 0.101
EBC-1; first compound 0.253 µM
  relative viability: 0.11
EBC-1; first compound 0.8 µM
  relative viability: 0.107
EBC-1; first compound 8 µM
  relative viability: 0.0983
NCI-H1993; first compound 0.08 µM
  relative viability: 0.898
NCI-H1993; first compound 0.253 µM
  relative viability: 0.782
NCI-H1993; first compound 0.8 µM
  relative viability: 0.851
NCI-H1993; first compound 2.53 µM
  relative viability: 0.786
NCI-H1993; first compound 8 µM
  relative viability: 0.88
NCI-H596; first compound 0.08 µM
  relative viability: 0.878
NCI-H596; first compound 0.253 µM
  relative viability: 1.01
NCI-H596; first compound 0.8 µM
  relative viability: 0.871
NCI-H596; first compound 2.53 µM
  relative viability: 1
NCI-H596; first compound 8 µM
  relative viability: 0.869
NCI-H1623; first compound 0.08 µM
  relative viability: 0.861
NCI-H1623; first compound 0.253 µM
  relative viability: 1.09
NCI-H1623; first compound 0.8 µM
  relative viability: 0.747
NCI-H1623; first compound 2.53 µM
  relative viability: 0.686
NCI-H1623; first compound 8 µM
  relative viability: 0.993
IA-LM; first compound 0.08 µM
  relative viability: 1.14
IA-LM; first compound 0.253 µM
  relative viability: 1.38
IA-LM; first compound 0.8 µM
  relative viability: 1.02
IA-LM; first compound 2.53 µM
  relative viability: 1.25
IA-LM; first compound 8 µM
  relative viability: 1.01
NCI-H23; first compound 0.08 µM
  relative viability: 0.795
NCI-H23; first compound 0.253 µM
  relative viability: 1.08
NCI-H23; first compound 0.8 µM
  relative viability: 1.02
NCI-H23; first compound 2.53 µM
  relative viability: 0.808
NCI-H23; first compound 8 µM
  relative viability: 0.881
NCI-H1703; first compound 0.08 µM
  relative viability: 0.399
NCI-H1703; first compound 0.253 µM
  relative viability: 0.334
NCI-H1703; first compound 0.8 µM
  relative viability: 0.325
NCI-H1703; first compound 2.53 µM
  relative viability: 0.355
NCI-H1703; first compound 8 µM
  relative viability: 0.388
NCI-H1299; first compound 0.08 µM
  relative viability: 1.12
NCI-H1299; first compound 0.253 µM
  relative viability: 1.03
NCI-H1299; first compound 0.8 µM
  relative viability: 1.04
NCI-H1299; first compound 2.53 µM
  relative viability: 1.04
NCI-H1299; first compound 8 µM
  relative viability: 1.11

## Oc1nc(-c2ccc(C(F)(F)F)cc2)nc2c1CSCC2 [XAV939] + Cc1cc(Nc2cc(N3CCN(C)CC3)nc(Sc3ccc(NC(=O)C4CC4)cc3)n2)n[nH]1 [Tozasertib] (partner 0.1 µM)
NCI-H522; first compound 0.08 µM
  relative viability: 0.6
NCI-H522; first compound 0.253 µM
  relative viability: 0.529
NCI-H522; first compound 0.8 µM
  relative viability: 0.568
NCI-H522; first compound 2.53 µM
  relative viability: 0.638
NCI-H1993; first compound 0.08 µM
  relative viability: 0.559
NCI-H1993; first compound 0.253 µM
  relative viability: 0.605
NCI-H1993; first compound 0.8 µM
  relative viability: 0.551
NCI-H1993; first compound 2.53 µM
  relative viability: 0.59
NCI-H1648; first compound 0.08 µM
  relative viability: 0.664
NCI-H1648; first compound 0.8 µM
  relative viability: 0.453
NCI-H1648; first compound 2.53 µM
  relative viability: 0.275
NCI-H596; first compound 0.08 µM
  relative viability: 0.915
NCI-H596; first compound 0.253 µM
  relative viability: 0.798
NCI-H596; first compound 0.8 µM
  relative viability: 1.07
NCI-H596; first compound 2.53 µM
  relative viability: 0.939
NCI-H1623; first compound 0.08 µM
  relative viability: 0.403
NCI-H1623; first compound 0.253 µM
  relative viability: 0.414
NCI-H1623; first compound 0.8 µM
  relative viability: 0.386
NCI-H1623; first compound 2.53 µM
  relative viability: 0.373
NCI-H23; first compound 0.08 µM
  relative viability: 0.403
NCI-H23; first compound 0.253 µM
  relative viability: 0.373
NCI-H23; first compound 0.8 µM
  relative viability: 0.343
NCI-H23; first compound 2.53 µM
  relative viability: 0.357

## C=C1C(=O)O[C@@H](CCCCCCCC)[C@@H]1C(=O)O [C-75] + COc1cccc2cc(-c3nc([C@H]4CC[C@H](C(=O)O)CC4)n4ncnc(N)c34)[nH]c12 [OSI-027] (partner 0.5 µM)
NCI-H522; first compound 0.08 µM
  relative viability: 0.744
NCI-H522; first compound 0.253 µM
  relative viability: 0.819
NCI-H522; first compound 0.8 µM
  relative viability: 0.753
NCI-H522; first compound 8 µM
  relative viability: 0.641
NCI-H1993; first compound 0.08 µM
  relative viability: 0.558
NCI-H1993; first compound 0.253 µM
  relative viability: 0.61
NCI-H1993; first compound 0.8 µM
  relative viability: 0.491
NCI-H1993; first compound 2.53 µM
  relative viability: 0.539
NCI-H1993; first compound 8 µM
  relative viability: 0.589
NCI-H1648; first compound 0.08 µM
  relative viability: 0.238
NCI-H1648; first compound 0.253 µM
  relative viability: 0.301
NCI-H1648; first compound 0.8 µM
  relative viability: 0.276
NCI-H1648; first compound 8 µM
  relative viability: 0.267
NCI-H596; first compound 0.08 µM
  relative viability: 0.887
NCI-H596; first compound 0.253 µM
  relative viability: 0.798
NCI-H596; first compound 0.8 µM
  relative viability: 0.72
NCI-H596; first compound 2.53 µM
  relative viability: 0.622
NCI-H596; first compound 8 µM
  relative viability: 0.678
NCI-H1623; first compound 0.08 µM
  relative viability: 0.463
NCI-H1623; first compound 0.253 µM
  relative viability: 0.503
NCI-H1623; first compound 0.8 µM
  relative viability: 0.416
NCI-H1623; first compound 2.53 µM
  relative viability: 0.38
NCI-H1623; first compound 8 µM
  relative viability: 0.457
NCI-H23; first compound 0.08 µM
  relative viability: 0.742
NCI-H23; first compound 0.253 µM
  relative viability: 0.698
NCI-H23; first compound 0.8 µM
  relative viability: 0.575
NCI-H23; first compound 2.53 µM
  relative viability: 0.375
NCI-H23; first compound 8 µM
  relative viability: 0.448
